Measurements as given in patent US20020182614A1, “Expression analysis of inhibitor of differentiation nucleic acids and polypeptides useful in the diagnosis and treatment of prostate cancer” (priority 2000, published 2002).

Columns and labels:
PSA [1] = test system: PSA
ID-1 = conditions: LNCaP cells, in the presence of androgen
ID-3 = conditions: LNCaP cells, in the presence of androgen
PSA [2] = conditions: LNCaP cells, mRNA
LNCaP cells = test system: LNCaP cells
Protocol: Human prostatic cancer cell lines LNCaP, DU-145, PC-3, and Tsu-prl were obtained from ATCC. LNCaP cancer cells were maintained in humidified atmosphere of 5% CO2 in air in RPMI 1640 medium supplemented with 10% fetal calf serum (Life Technologies, Inc, Rockville, Md.), 3 mM L-glutamine, 100 μg/ml streptomycin and 100 units/ml penicillin. Other lines were maintained in DMEM containing 3 mM L-glutamine, 100 μg/ml streptomycin, 100 units/ml penicillin, and 10% FCS in humidified atmosphere of 5% CO2. To examine the effects of steroids, cells were cultured in RPMI 1640 medium containing 5% FCS treated with dextran coated charcoal (Hyclone, Logan, Utah) for 24 hs before treatment. Cells were grown in the absence or presence of 10 nM DHT for 0, 2, 4, 6, 12, 24, 48, and 72 hs. They were collected and frozen at each time point. Two hundred μl of medium were collected from each flask for PSA assay.
To verify the effect of DHT on the growth of LNCaP cells, cells at 3,000 cells/well were plated in 96-well plates for 24 hs before treatment with DHT. After 72 hs, MTT was added to each well and incubated at 37° C. for four hs. At the end of incubation, the supernatant was removed and 100 μl DMSO was added to each well to dissolve […]. Plates were subsequently read in a plate reader at […].

Compound: C[C@]12CCC(=O)C[C@@H]1CC[C@@H]1[C@@H]2CC[C@]2(C)[C@@H](O)CC[C@@H]12 [DHT, dihydrotestosterone]
- PSA production (PSA [1]): increased in a dose-dependent manner
- time at which PSA signal was first detected (PSA [1]): 12 h
- time of maximal PSA level (PSA [1]): about 48 hs
- ID-1 expression level (ID-1): reduced
- ID-3 expression level (ID-3): reduced
- PSA expression increase relative to control (PSA [2]; 12 hours): 3 fold
- PSA expression induction relative to control (PSA [2]; 72 hours): approximately 4 fold
- growth-stimulatory effect (LNCaP cells; 10 nM DHT): robust growth-stimulatory effect
- growth of LNCaP cells (LNCaP cells; MTT assay, FIG. 1A): stimulated
